Measurements from US20260053811A1, “METHODS OF TREATING HYPERTENSION IN OBESE SUBJECTS” (Mineralys Therapeutics, Inc., priority 2022, published 2026).

Test system: hypertensive subjects
Assay: Seated automated office blood pressure (AOBP) in randomized, placebo-controlled, dose-ranging study
Assay type: in vivo, human
Settings: Part 1
Experimental: A randomized, double-blinded, placebo-controlled, dose-ranging, multicenter study was conducted to evaluate the effect of orally administered Compound A HBr on blood pressure for the treatment of hypertension in male and female subjects ≥18 years of age.
The study consists of two parts. For enrollment into Part 1 of the study, a subject's value of plasma renin activity (PRA) must be ≤1 ng/mL/h based on morning measurement. If the value of PRA >1 ng/mL/h based on morning measurement, then subjects may be eligible to enter Part 2 of the study.
For Part 1, 163 enrolled subjects ≥18 years of age were randomized into 6 equal treatment groups (1:1:1:1:1:1) to 12.5 mg BID, 25 mg BID, 12.5 mg QD, 50 mg QD, 100 mg QD, or placebo. After a review of interim clinical data, the 2 lowest dose levels (12.5 mg QD and 12.5 mg BID) were stopped for future randomization due to a lack of consistent meaningful reduction of blood pressure, but the patients randomized to that point remained in the study through completion. Thus, after the review of interim clinical data, subjects were randomized into 4 equal treatment groups (1:1:1:1) to 25 mg BID, 50 mg QD, 100 mg QD, or placebo.
For Part 2, 36 enrolled subjects ≥18 years of age were randomized (5:1) to either 100 mg QD Compound A HBr or placebo such that the Compound A HBr treatment group consisted of approximately 30 subjects and the placebo treatment group will consist of approximately 6 subjects.
Subjects orally administered the assigned study drug (Compound A HBr or placebo) according to the assigned dosing regimen for 8 weeks beginning on Study Day 1. All subjects in Part 1 (regardless of dosing group) received BID dosing to preserve the integrity of the blind; active drug is administered as the morning dose for all QD dose groups. Subjects returned to the research facility or were seen by the clinical investigator or approved home health care professional at the end of Study Weeks 1, 2, 3, 4, 5, 6, 7, and 8 (±2 days) for protocol-defined efficacy and safety assessments and procedures, assessment of adverse events (AEs), and confirmation of compliance with study drug usage. Subjects also completed a telephone visit and blood pressure (BP) check at home approximately 3 days post last dose of study drug. Subjects attended up to 14 full clinic visits, including a pre-Screening visit, a Screening/start of Placebo Run-in visit, a second visit during Placebo Run-in, a clinic visit to initiate the ABPM procedure, a Randomization visit, 8 weekly visits during double-blind treatment, and an end-of-study visit scheduled 4 weeks after the last study treatment for final efficacy and safety assessments.
An automated oscillometric sphygmomanometer device was used to measure the subjects' systolic and diastolic blood pressure in office after approximately 5 minutes of rest in the seated position.
The primary endpoint is the change in office-measured (mean of last 2 of 5 unattended measurements using an automated oscillometric sphygmomanometer device after approximately 5 minutes of rest in the seated position) systolic blood pressure (SBP) from baseline to the end of Study Week 8.
Secondary endpoints of this study were: • (a) Change in 24-hour ambulatory blood pressure monitoring (ABPM) parameters (systolic and diastolic) from baseline to the end of Study Week 7. • (b) Change in office-measured SBP from baseline to the end of Study Weeks 1, 2, 3, 4, 5, 6, and 7. • (c) Change in office-measured diastolic blood pressure (DBP) from baseline to the end of Study Weeks 1, 2, 3, 4, 5, 6, 7, and 8. • (d) Proportion of subjects who achieve office-measured BP of ≤130/80 mm Hg by the end of Study Week 8.

[1] = 25 mg BID, BMI at baseline 25-30 kg/m^2
[2] = 25 mg BID, BMI at baseline <25 kg/m^2
[3] = 25 mg BID, BMI at baseline >30 kg/m^2
[4] = 25 mg BID, Seated SBP Tertile High
[5] = 25 mg BID, Seated SBP Tertile Low
[6] = 25 mg BID, Seated SBP Tertile Middle
[7] = 25 mg BID, Systolic Blood Pressure Tertile at Baseline High
[8] = 25 mg BID, Systolic Blood Pressure Tertile at Baseline Low
[9] = 25 mg BID, Systolic Blood Pressure Tertile at Baseline Middle
[10] = 25 mg BID, Thiazide Diuretic Use at Baseline No
[11] = 25 mg BID, Thiazide Diuretic Use at Baseline Yes

CC(=O)N[C@H]1CC[C@H](NC(=O)CN2CCN(c3nncc(-c4ccc(C)cc4)n3)CC2)CC1 [Compound A HBr]
Mean (SD) Change from Baseline at Week 8 in Automated Office-Measured Diastolic Blood Pressure (25 mg BID, BMI >30 kg/m^2): −5.33 (8.88) mmHg
Mean (SD) Automated Office-Measured Systolic Blood Pressure at Wk 8 [1]: 134.11 (15.72) mmHg
Mean (SD) Change from Baseline at Week 8 in Automated Office-Measured Systolic Blood Pressure [1]: −4.89 (13.17) mmHg
Mean (SD) Automated Office-Measured Systolic Blood Pressure at Wk 8 [2]: 126.25 (18.52) mmHg
Mean (SD) Change from Baseline at Week 8 in Automated Office-Measured Systolic Blood Pressure [2]: −18.13 (15.56) mmHg
Mean (SD) Automated Office-Measured Systolic Blood Pressure at Wk 8 [3]: 130.93 (17.43) mmHg
Mean (SD) Change from Baseline at Week 8 in Automated Office-Measured Systolic Blood Pressure [3]: −11.13 (13.83) mmHg
Mean (SD) Automated Office-Measured Diastolic Blood Pressure at Wk 8 (25 mg BID, Race Black or AA): 75.43 (10.05) mmHg
Mean (SD) Automated Office-Measured Systolic Blood Pressure at Wk 8 (25 mg BID, Race Black or AA): 124.00 (15.68) mmHg
Mean (SD) Change from Baseline at Week 8 in Automated Office-Measured Diastolic Blood Pressure (25 mg BID, Race Black or AA): −7.79 (9.03) mmHg
Mean (SD) Change from Baseline at Week 8 in Automated Office-Measured Systolic Blood Pressure (25 mg BID, Race Black or AA): −13.29 (15.91) mmHg
Mean (SD) Automated Office-Measured Diastolic Blood Pressure at Wk 8 (25 mg BID, Race Other): 75.43 (14.14) mmHg
Mean (SD) Automated Office-Measured Systolic Blood Pressure at Wk 8 (25 mg BID, Race Other): 133.71 (16.53) mmHg
Mean (SD) Change from Baseline at Week 8 in Automated Office-Measured Diastolic Blood Pressure (25 mg BID, Race Other): −2.31 (12.36) mmHg
Mean (SD) Change from Baseline at Week 8 in Automated Office-Measured Systolic Blood Pressure (25 mg BID, Race Other): −9.07 (13.59) mmHg
Mean (SD) Automated Office-Measured Diastolic Blood Pressure at Wk 8 [4]: 74.00 (7.39) mmHg
Mean (SD) Change from Baseline at Week 8 in Automated Office-Measured Diastolic Blood Pressure [4]: −7.36 (5.62) mmHg
Mean (SD) Automated Office-Measured Diastolic Blood Pressure at Wk 8 [5]: 72.40 (9.55) mmHg
Mean (SD) Change from Baseline at Week 8 in Automated Office-Measured Diastolic Blood Pressure [5]: −6.15 (8.84) mmHg
Mean (SD) Automated Office-Measured Diastolic Blood Pressure at Wk 8 [6]: 79.09 (17.89) mmHg
Mean (SD) Change from Baseline at Week 8 in Automated Office-Measured Diastolic Blood Pressure [6]: 0.91 (15.57) mmHg
Mean (SD) Automated Office-Measured Diastolic Blood Pressure at Wk 8 (25 mg BID, Sex Female): 77.12 (15.02) mmHg
Mean (SD) Automated Office-Measured Systolic Blood Pressure at Wk 8 (25 mg BID, Sex Female): 132.88 (16.99) mmHg
Mean (SD) Change from Baseline at Week 8 in Automated Office-Measured Diastolic Blood Pressure (25 mg BID, Sex Female): −2.41 (13.79) mmHg
Mean (SD) Change from Baseline at Week 8 in Automated Office-Measured Systolic Blood Pressure (25 mg BID, Sex Female): −10.62 (14.75) mmHg
Mean (SD) Automated Office-Measured Diastolic Blood Pressure at Wk 8 (25 mg BID, Sex Male): 72.82 (9.34) mmHg
Mean (SD) Automated Office-Measured Systolic Blood Pressure at Wk 8 (25 mg BID, Sex Male): 128.82 (16.45) mmHg
Mean (SD) Change from Baseline at Week 8 in Automated Office-Measured Diastolic Blood Pressure (25 mg BID, Sex Male): −5.64 (7.70) mmHg
Mean (SD) Change from Baseline at Week 8 in Automated Office-Measured Systolic Blood Pressure (25 mg BID, Sex Male): −9.36 (13.49) mmHg
Mean (SD) Automated Office-Measured Systolic Blood Pressure at Wk 8 [7]: 139.86 (16.99) mmHg
Mean (SD) Change from Baseline at Week 8 in Automated Office-Measured Systolic Blood Pressure [7]: −14.14 (13.63) mmHg
Mean (SD) Automated Office-Measured Systolic Blood Pressure at Wk 8 [8]: 120.70 (13.06) mmHg
Mean (SD) Change from Baseline at Week 8 in Automated Office-Measured Systolic Blood Pressure [8]: −12.50 (13.48) mmHg
Mean (SD) Automated Office-Measured Systolic Blood Pressure at Wk 8 [9]: 135.45 (15.29) mmHg
Mean (SD) Change from Baseline at Week 8 in Automated Office-Measured Systolic Blood Pressure [9]: −5.41 (14.64) mmHg
Automated Office-Measured Diastolic Blood Pressure, Week 8, Mean (SD) [10]: 74.36 (8.31) mmHg
Mean (SD) Automated Office-Measured Systolic Blood Pressure at Wk 8 [10]: 132.45 (15.21) mmHg
Mean (SD) Change from Baseline at Week 8 in Automated Office-Measured Diastolic Blood Pressure [10]: −6.09 (7.34) mmHg
Mean (SD) Change from Baseline at Week 8 in Automated Office-Measured Systolic Blood Pressure [10]: −9.32 (14.08) mmHg
Automated Office-Measured Diastolic Blood Pressure, Week 8, Mean (SD) [11]: 76.12 (15.60) mmHg
Mean (SD) Automated Office-Measured Systolic Blood Pressure at Wk 8 [11]: 130.53 (17.84) mmHg
Mean (SD) Change from Baseline at Week 8 in Automated Office-Measured Diastolic Blood Pressure [11]: −2.12 (13.83) mmHg
Mean (SD) Change from Baseline at Week 8 in Automated Office-Measured Systolic Blood Pressure [11]: −10.65 (14.39) mmHg
Mean (SD) Automated Office-Measured Systolic Blood Pressure at Wk 8 (50 mg QD, ACEi/ARB No): 131.13 (13.27) mmHg
Mean (SD) Change from Baseline at Week 8 in Automated Office-Measured Systolic Blood Pressure (50 mg QD, ACEi/ARB No): −6.75 (15.62) mmHg
Mean (SD) Automated Office-Measured Systolic Blood Pressure at Wk 8 (50 mg QD, ACEi/ARB Yes): 127.65 (14.07) mmHg
